Where two headings read alike, the source gives them in different places.
Tests used:
Type in all cases: cell-based, Escherichia coli
E. coli MG1655 = test system: E. coli MG1655; set-up: unit not given here
Procedure: (§1) The screening strain, DR1234, was established after all desired drug-resistant genes listed in Table 5 had been delivered into the parent E. coli strain, MG1655, by methods described above. Its level of drug resistance was analyzed by the standard minimum inhibitory concentration (MIC) assay in MHB liquid medium (Chantot, et al., 1986, “Antibacterial activity of roxithromycin: a laboratory evaluation,” J. Antibiot, 39(5):660-8) and the result was summarized in Table 7.
(§2) The level of drug resistance of CM166 was estimated by MIC assay carried out in MHB liquid medium and the results were summarized in Table 9. CM166 is resistant to antibacterial agents whose resistant genes have been incorporated into the strain, but not to other antibacterial drugs whose resistant genes are not incorporated.
(§3) The level of drug-resistance of screening strain DR1212 was analyzed by standard MIC assay in MHB liquid medium and the result was summarized in Table 11. Similar to screening strains, DR1234 and CM166, DR1212 is also resistant to drugs whose resistant genes have been introduced.
(§4) The level of drug resistance of these screening strains (both intermediates and finals) was evaluated by standard MIC assay in MHB liquid medium and the result of Strain CM242 is summarized in Table 12.
(§5) The level of drug resistance of screening strains CM400 and CM435 was evaluated by standard MIC assay in MHB liquid medium and the results are summarized in Table 13. According to the MIC results, CM435 is hypersensitive to Bleomycin, Daunorucibin, Coumermycin A1 and Erythromycin. Screening strain CM435 and others, which are hypersensitive to certain types of antimicrobial agents, are advantageous in detecting bioactive compounds with low concentration in the screening system.

[1] = test system: E. coli screening strain DR1234; set-up: unit not given here
Procedure: as §1

[2] = test system: E. coli screening strain CM166; set-up: unit not given here; conditions: Table 9, MHB medium
Description: as §2

[3] = test system: E. coli screening strain DR1212; set-up: unit not given here
Procedure: as §3

[4] = test system: E. coli screening strain CM242; set-up: unit not given here; conditions: second Table 12, MHB medium
Procedure: as §4

[5] = test system: E. coli screening strain CM400; set-up: unit not given here; conditions: Table 13, MHB medium
Procedure: as §5

[6] = test system: E. coli screening strain CM435; set-up: Minimal inhibitory concentrations (MIC90) CM435: unit not given here; conditions: for Minimal inhibitory concentrations (MIC90) CM435: Table 13, MHB medium

| Compound | Minimal inhibitory concentrations (MIC90) MG1655 (E. coli MG1655; Table 7, MHB medium) | Minimal inhibitory concentrations (MIC90) MG1655 (E. coli MG1655; Table 9, MHB medium) | Minimal inhibitory concentrations (MIC90) MG1655 (E. coli MG1655; Table 11, MHB medium) | Minimal inhibitory concentrations (MIC90) MG1655 (E. coli MG1655; Table 13, MHB medium) | Minimal inhibitory concentrations (MIC90) MG1655 (E. coli MG1655; second Table 12, MHB medium) | Minimal inhibitory concentrations (MIC90) DR1234 ([1]; Table 7, MHB medium) | Minimal inhibitory concentrations (MIC90) CM166 [2] | Minimal inhibitory concentrations (MIC90) DR1212 ([3]; Table 11, MHB medium) | Minimal inhibitory concentrations (MIC90) CM242 [4] | Minimal inhibitory concentrations (MIC90) CM400 [5] | Minimal inhibitory concentrations (MIC90) CM435 [6] | sensitivity of CM435 according to the MIC results ([6]; MHB liquid medium) | Minimal inhibitory concentrations (MIC90) DR1234 [1] | Minimal inhibitory concentrations (MIC90) DR1212 [3] |
| --- | --- | --- | --- | --- | --- | --- | --- | --- | --- | --- | --- | --- | --- | --- |
| CN[C@@H]1[C@@H](O[C@H]2O[C@H](CO)[C@@H](N)[C@H](O)[C@H]2O)OC2C[C@@H](N)[C@@H](O[C@H]3[C@H](O)[C@@H](O)[C@H](N)C[C@@H]3N)OC2[C@@H]1O (some centres unmarked) [Apramycin] | 3.2-6.3 | 3.2-6.3 | 3.2-6.3 | 4 | 3.2-6.3 | 400 | 200 | 1.6 | 400 | 64 | >64 |  |  |  |
| Gentamicin | 0.8 | 0.8 | 0.8 | 1 | 0.8 | 400 | >400 | 200 | 100 | >64 | >64 |  |  |  |
| NC[C@H]1O[C@H](O[C@H]2[C@H](O)[C@@H](O[C@H]3O[C@H](CO)[C@@H](O)[C@H](N)[C@H]3O)[C@H](N)C[C@@H]2N)[C@H](N)C[C@@H]1O [Tobramycin] | 0.4 | 0.4 | 0.4 |  | 0.4 | 50 | >400 | 25 | 100 |  |  |  |  |  |
| O=C(N[C@H](CO)[C@H](O)c1ccc([N+](=O)[O-])cc1)C(Cl)Cl [Chloramphenicol] | 3.2 | 3.2 | 3.2 | 8 | 3.2 | 100 | 100 | 400 | 100 | >64 | >64 |  |  |  |
| Neomycin | 0.8 | 0.8 | 0.8 | 2 | 0.8 | 100 | 25 | 25 | 50 | 16 | 8 |  |  |  |
| CO[C@H]1[C@H](OC(=O)c2ccc(C)[nH]2)[C@H](O)[C@@H](Oc2ccc3c(O)c(NC(=O)c4c[nH]c(C(=O)Nc5c(O)c6ccc(O[C@H]7OC(C)(C)[C@@H](OC)[C@H](OC(=O)c8ccc(C)[nH]8)[C@@H]7O)c(C)c6oc5=O)c4C)c(=O)oc3c2C)OC1(C)C [Coumermycin A1] | 12.5 | 12.5 | 12.5 | >64 | 12.5 | 3.2 | 6.3 | 3.2 | 6.3 | 64 | 4 | hypersensitive |  |  |
| NC[C@H]1O[C@H](O[C@H]2[C@H](O)[C@@H](O[C@H]3O[C@H](CO)[C@@H](O)[C@H](N)[C@H]3O)[C@H](N)C[C@@H]2N)[C@H](O)[C@@H](O)[C@@H]1O [Kanamycin] |  |  |  |  |  |  | >400 |  | >400 | >64 | >64 |  | >400 | 400 |
| CC1(C)S[C@@H]2[C@H](NC(=O)[C@H](N)c3ccccc3)C(=O)N2[C@H]1C(=O)O [Ampicillin] | 1.6-3.2 | 1.6-3.2 | 1.6-3.2 | 8 | 1.6-3.2 | >400 | >400 | >400 | >400 | >64 | >64 |  |  |  |
| CO[C@H]1/C=C/O[C@@]2(C)Oc3c(C)c(O)c4c(O)c(cc(O)c4c3C2=O)NC(=O)/C(C)=C\C=C\[C@H](C)[C@H](O)[C@@H](C)[C@@H](O)[C@@H](C)[C@H](OC(C)=O)[C@@H]1C [Rifamycin] |  |  |  | 16 |  |  |  |  |  | >64 | 16 |  |  |  |
| Actinomycin C | 50 | 50 | 50 | 256 | 50 | 100 | 50 | 25.0 | 200 | >256 | >256 |  |  |  |
| NC[C@@H]1CC[C@@H](N)[C@@H](O[C@H]2[C@H](O)[C@@H](O[C@H]3O[C@H](CO)[C@@H](O)[C@H](N)[C@H]3O)[C@H](N)C[C@@H]2N)O1 [Dibekacin] |  |  |  |  | 3.2 |  |  |  | 400 |  |  |  |  |  |
| C[C@H]1[C@H](NC(=O)/C(=N\OC(C)(C)C(=O)O)c2csc(N)n2)C(=O)N1S(=O)(=O)O [Aztreonam] | 0.1 | 0.1 | 0.1 | 0.06 | 0.1 | ≦0.05 | ≦0.05 | ≦0.05 | 0.3 | <0.06 |  |  |  |  |

Source: US20100311107A1, “Ultra-High Throughput Screening of Natural Products” (priority 2004, published 2010)
